Data from PMC10747602, “Dose Response, Dosimetric, and Metabolic Evaluations of Replacement PFAS Perfluoro-(2,5,8-trimethyl-3,6,9-trioxadodecanoic) Acid (HFPO-TeA)” (Toxics, 2023).
Several values for one entry are separate records, joined by “and”; a condition that tells them apart may be missing. Equal values may be shown once. Read-outs that look alike come from different tables or passages of the source.

Assays:
[1] = tested on: human hepatocytes; assay: Hepatocyte metabolic stability (clearance) assay, human hepatocytes; conditions: for Negative Control Data, No cells (NC), Ln Concentration / Negative Control Data, Heat Treated (HT), Ln Concentration / Ln Concentration / Linear Regression Best-Fit Slope (ln concentration vs time): 1000 nM; for Negative Control Data, No cells (NC), Ln Concentration / Negative Control Data, Heat Treated (HT), Ln Concentration / Ln Concentration: Rep 1-3; for Clin vitro / Negative Control Data, Heat Treated (HT), Ln Concentration / Ln Concentration / Linear Regression Best-Fit Slope (ln concentration vs time): human hepatocytes; for Clin vitro: 1 µM; for Linear Regression Best-Fit Slope (ln concentration vs time): time in min
Description: Information on the chemicals and materials used in the hepatocyte metabolic work can be found in Supplementary Text S9 and Table S3. In vitro evaluations of hepatocyte metabolic stability were performed in human and rat hepatocytes, as previously described. Briefly, pooled, cryopreserved hepatocyte suspensions were thawed, assessed for viability, and then diluted in William’s medium E containing dexamethasone and cell maintenance cocktail B to achieve a cell density of 50,000 cells/100 µL. The assay was started by adding hepatocyte suspensions to wells of 96-well polypropylene plates containing an equal volume of media with 2 µM of analyte (final assay concentration: 1 µM). Plates were placed in a 37 °C cell culture incubator (5% CO2) on a shaker set to 200 rpm. Time points assessed were T0, T15, T30, T60, T120, and T240 min. At each time point, the plates were removed from the shaker and the incubates were crashed with an equal volume of ice-cold ACN containing 1.2% FA and 16 ng/mL of ^13C3 -HFPO-DA. After chilling and centrifugation at 4122× g, the supernatants were transferred to new collection plates and stored at −70 °C until analysis for the parent compound on the Waters instrumentation described below. Immediately prior to analysis, samples were thawed, vortexed, and centrifuged at 4200× g, and then diluted 1:4 in 95:5 H2O/ACN with 2.5 mM of ammonium acetate. Negative controls, including no cell controls and metabolically inactivated hepatocytes, were run concurrently to assess the chemical stability over the time course.
Intrinsic clearance (Clint; hepatic clearance) calculations are detailed in Supplementary Text S9 [57].
Targeted, quantitative analysis of in vitro hepatocyte metabolic stability and plasma protein binding assay samples was conducted on a Waters Xevo-TQS micro mass spectrometer (Waters, Milford, MA, USA) ultra-high-performance liquid chromatography tandem mass spectrometry system (UPLC-MS/MS), modified with a PFAS analysis kit. Samples were analyzed in negative ion mode with UniSpray ionization. A CORTECS T3 column (Waters CORTECS, 3 × 100 mm, particle size 2.7 µm) was used for chromatographic separation with a flow rate of 0.6 mL/min and a temperature of 55 °C. Gradient elution was used with eluent A (95:5 H2O/ACN) and eluent B (95:5 ACN/H2O) with 2.5 mM of ammonium acetate. The gradient is available in Table S11. Additional details for MS parameters are found in Table S12 and monitored transitions are found in Table S13.
Table S2: Data processing parameters used with Sciex MarkerView 1.3.1.
Support ing Text S9: Hepatocyte Metabolic Stability Assay Materials, Chemicals, and Calculations
Pooled human and rat cryopreserved primary hepatocyte suspensions were both obtained from
BioIVT, a US Food and Drug Administration-licensed and inspected donor center, and produced using
non-transplantable tissue.
William’s E media, dexamet hasone (98% pure), and cell maintenance cocktail B were obtained from
Thermo Fisher Scientific (Waltham, MA, USA), the OptiThaw hepatocyte kit from Sekisui/Xenotech
(Tokyo, Japan), and the trypan blue s (Sekisui/ Xenotech, Tokyo, Japan) and the trypan blue solution from […]

[2] = tested on: Human plasma; assay: Ultracentrifugation plasma protein binding assay, human plasma; format: in vitro ADME; conditions: 10000 nM; for Average Stability (T5hr/ T1hr): 37 °C; for Aqueous Fraction concentration: after ultracentrifugation; for Aqueous Fraction concentration / Fraction Unbound in plasma (fup) / Stability (T5hr/ T1hr) / Time 1 hr concentration / Time 5 hr concentration: replicates A-C
Description: (§1) Information on the chemicals and materials used in the plasma protein binding work can be found in Supplementary Text S10 and Table S3. Human and rodent plasma were evaluated for plasma protein binding using ultracentrifugation, as previously described. Working solutions of 3 mM of HFPO-DA, HFPO-TA, and HFPO-TeA were prepared separately in ethanol, with each working solution containing 3 mM of testosterone (Sigma-Aldrich; ≥98% pure) as a reference compound for assay performance. An aliquot of each stock solution (13.3 µL) was added to separate 15 mL tubes with 3.987 mL of plasma for a final assay concentration of 10 µM. The plasma solutions were incubated at 37 °C and 125 rpm for 60 min. One-hour stability samples (T60 min) were drawn in triplicate and diluted in four volumes of plasma ultrafiltrate. Aliquots (1 mL) from each plasma solution were drawn in triplicate and transferred to polycarbonate tubing. These samples underwent ultracentrifugation (Beckman OptimaMax; Beckman Coulter Inc., Brea, CA, USA) at 850,000× g for 4 h at 37 °C.
(§2) The remaining plasma solutions were returned for incubation at 37 °C and 125 rpm for an additional 4 h. Five-hour stability samples (T300 min) were then drawn in triplicate and diluted in four volumes of plasma ultrafiltrate. After ultracentrifugation, the aqueous fraction (AF) was collected by transferring the supernatant to a new tube and diluting in an equal volume of plasma for matrix matching. All samples were combined with 3 volumes of ice-cold ACN containing 16 ng/mL of ^13C3-HFPO-DA and 16 ng/mL of ^13C-Testosterone (Cambridge Isotope Laboratories; 98% pure). Samples were vigorously mixed, stored for 10 min at −20 °C, and then centrifuged at 12,000× g for 10 min at 4 °C. Supernatants were collected then stored at −70 °C prior to analysis.
(§3) Fraction unbound (fu) in plasma (fup) and percent stability calculations are detailed in Supplementary Text S10. Hepatic clearance, the fu in blood (fub) (fu in plasma adjusted for blood:plasma partitioning), and renal clearance were used to derive the steady-state concentration (Css) of each compound that will be used for in vitro–in vivo extrapolation (IVIVE). Renal clearance was calculated using the glomerular filtration rate (a species-dependent constant) and the fub. The Css calculation is detailed in Supplementary Text S11.
(§4) The gradient is available in Table S11. […]
(§5) Chemical stability in plasma was assessed
(§6) (F) Percent Stability = T300minutesT60minutes∗100

[3] = as above; format: in vitro ADME; conditions: both sexes, human
Description: as §1, §2, §3, §4, §5, §6

[4] = plasma, 10 µM, ultracentrifugation, read-out: Experimental fup (average fraction unbound in plasma)
[5] = pooled human plasma, 10000 nM, replicates A-C, read-out: Fraction Unbound in plasma (fup)

## O=C(O)C(F)(OC(F)(F)C(F)(OC(F)(F)C(F)(OC(F)(F)C(F)(F)C(F)(F)F)C(F)(F)F)C(F)(F)F)C(F)(F)F (stereo not drawn) [HFPO-TeA, perfluoro-(2,5,8-trimethyl-3,6,9-trioxadodecanoic) acid]
[1]; 15 min
  Negative Control Data, No cells (NC), Ln Concentration: 3.2431 and 3.8547 and 4.8392
  Negative Control Data, Heat Treated (HT), Ln Concentration: 3.2431 and 3.8547 and 4.8392
[1]; 240 min
  Negative Control Data, No cells (NC), Ln Concentration: 4.3983 and 4.1513 and 4.1952
  Negative Control Data, Heat Treated (HT), Ln Concentration: 3.9071 and 4.4271 and 4.0870
[1]
  Clin vitro: 0 µL/min/106 cells
  Linear Regression Best-Fit Slope (ln concentration vs time): 0.001224
[1]; time 0 min
  Ln Concentration: 4.4318 and 4.5113 and 4.4280
[1]; time 15 min
  Ln Concentration: 4.5753 and 4.4697 and 3.8582
[1]; time 30 min
  Ln Concentration: 3.6875 and 3.5788 and 3.6553
[1]; time 60 min
  Ln Concentration: 3.0465 and 3.5032 and 3.8121
[1]; time 120 min
  Ln Concentration: 4.2197 and 4.3067 and 4.1488
[1]; time 240 min
  Ln Concentration: 3.9567 and 3.8156 and 4.0422
[2]
  Average Stability (T5hr/ T1hr): 1.0363
  Aqueous Fraction concentration: 83.20 nM and 80 nM and 121.60 nM
  Fraction Unbound in plasma (fup): 0.0109 and 0.0142
  Stability (T5hr/ T1hr): 0.9304 and 0.9406 and 1.2379
  Time 1 hr concentration: 7.36 µM and 7.808 µM and 6.928 µM
  Time 5 hr concentration: 6.848 µM and 7.344 µM and 8.576 µM
[3]; [4]
  fraction unbound at 4 h, 10 µM: 0.0124
[3]; [5]
  fraction unbound at 4 h, 10 µM: 0.0121

## O=C(O)C(F)(OC(F)(F)C(F)(OC(F)(F)C(F)(F)C(F)(F)F)C(F)(F)F)C(F)(F)F (stereo not drawn) [HFPO-TA, perfluoro-(2,5-dimethyl-3,6-dioxanonanoic) acid]
[1]; 15 min
  Negative Control Data, No cells (NC), Ln Concentration: 4.3597 and 5.0085 and 5.1884
  Negative Control Data, Heat Treated (HT), Ln Concentration: 4.3597 and 5.0085 and 5.1884
[1]; 240 min
  Negative Control Data, No cells (NC), Ln Concentration: 3.9371 and 3.9316 and 3.8367
  Negative Control Data, Heat Treated (HT), Ln Concentration: 4.9004 and 4.9391 and 4.9107
[1]
  Clin vitro: 0 µL/min/106 cells
  Linear Regression Best-Fit Slope (ln concentration vs time): 0.000858
[1]; time 0 min
  Ln Concentration: 3.4977 and 3.5184 and 3.3762
[1]; time 15 min
  Ln Concentration: 4.0516 and 4.0675 and 3.8232
[1]; time 30 min
  Ln Concentration: 3.7647 and 3.6457 and 3.2925
[1]; time 60 min
  Ln Concentration: 4.1190 and 4.0115 and 3.2249
[1]; time 120 min
  Ln Concentration: 4.2452 and 3.9281 and 3.6055
[1]; time 240 min
  Ln Concentration: 4.5149 and 4.7648 and 4.7557
[2]
  Average Stability (T5hr/ T1hr): 1.0308
  Aqueous Fraction concentration: 8.96 nM and 9.6 nM and 15.04 nM
  Fraction Unbound in plasma (fup): 0.0011 and 0.0015
  Stability (T5hr/ T1hr): 0.7676 and 1.2763 and 1.0484
  Time 1 hr concentration: 8.7016 µM and 7.0496 µM and 9.7592 µM
  Time 5 hr concentration: 6.6792 µM and 8.9976 µM and 10.232 µM
[3]; [4]
  fraction unbound at 4 h, 10 µM: 0.0013
[3]; [5]
  fraction unbound at 4 h, 10 µM: 0.0013

## O=C(O)C(F)(OC(F)(F)C(F)(F)C(F)(F)F)C(F)(F)F (stereo not drawn) [HFPO-DA, perfluoro-2-methyl-3-oxahexanoic acid]
[1]; 15 min
  Negative Control Data, No cells (NC), Ln Concentration: 4.4067 and 4.8800 and 5.2467
  Negative Control Data, Heat Treated (HT), Ln Concentration: 4.4067 and 4.8800 and 5.2467
[1]; 240 min
  Negative Control Data, No cells (NC), Ln Concentration: 4.0348 and 4.0907 and 4.1657
  Negative Control Data, Heat Treated (HT), Ln Concentration: 4.6325 and 4.7203 and 4.8737
[1]
  Clin vitro: 0 µL/min/106 cells
  Linear Regression Best-Fit Slope (ln concentration vs time): 0.0006364
[1]; time 0 min
  Ln Concentration: 4.0945 and 4.2370 and 4.1735
[1]; time 15 min
  Ln Concentration: 4.1372 and 3.3218 and 3.8504
[1]; time 30 min
  Ln Concentration: 4.2468 and 4.1368 and 4.2711
[1]; time 60 min
  Ln Concentration: 4.1233 and 4.2750 and 4.2651
[1]; time 120 min
  Ln Concentration: 4.3345 and 4.3751 and 4.3328
[1]; time 240 min
  Ln Concentration: 4.9658 and 4.7177 and 4.8428
[2]
  Average Stability (T5hr/ T1hr): 0.9905
  Aqueous Fraction concentration: 72.64 nM and 73.60 nM and 65.28 nM
  Fraction Unbound in plasma (fup): 0.0095
  Stability (T5hr/ T1hr): 0.9836 and 1.1438 and 0.8441
  Time 1 hr concentration: 7.4664 µM and 6.7536 µM and 7.8224 µM
  Time 5 hr concentration: 7.344 µM and 7.7248 µM and 6.6032 µM
[3]; [4]
  fraction unbound at 4 h, 10 µM: 0.0098
[3]; [5]
  fraction unbound at 4 h, 10 µM: 0.0099
